Experimental data: patent US20230017045A1, “PYRIDINE AND PYRIMIDINE CARBOXYLATE HERBICIDES AND METHODS OF USE THEREOF” (Dow AgroSciences LLC, priority 2017, published 2023)

Test system: test plant species
Assay: Post-emergent herbicidal activity test (greenhouse, foliar spray, visual growth reduction)
Assay type: in vivo
Details: post-emergence, 336 h, ALOMY: blackgrass (Alopecurus myosuroides), 140 g ai/ha, 14 days after application, read-out: Visual Growth Reduction (%) 14 Days After Application, ALOMY
Method: Post-emergent Test: Seeds or nutlets of the desired test plant species were planted in Sun Gro Metro-Mix® 360 planting mixture, which typically has a pH of 6.0 to 6.8 and an organic matter content of about 30 percent, in plastic pots with a surface area of 64 square centimeters. In some aspects, to ensure good germination and healthy plants, a fungicide treatment and/or other chemical or physical treatment was applied. The plants were grown for 7-21 d in a greenhouse with an approximate 15 h photoperiod which was maintained at 23-29° C. during the day and 22-28° C. during the night. Nutrients and water were added on a regular basis and supplemental lighting was provided with overhead metal halide 1000-Watt lamps as necessary. Plants were used for testing when they reached the first or second true leaf stage. A weighed amount, determined by the highest rate to be tested, of each test compound was placed in a 25 mL glass vial and was dissolved in 4 mL of a 97:3 v/v mixture of acetone and DMSO to obtain concentrated stock solutions. […] The concentrated stock solutions obtained were diluted with 20 mL of an aqueous mixture containing acetone, water, isopropyl alcohol, DMSO, […] crop oil concentrate, and X-77 surfactant in a 48.5:39:10:1.5:1.0:0.02 v/v ratio to obtain spray solutions containing the application rate. Compound requirements are based upon a 12 mL application volume at a rate of 187 liters per hectare (L/ha). Formulated compounds were applied to the plant material with an overhead Mandel track sprayer equipped with […] nozzles calibrated to deliver 187 L/ha over an application area of 0.64 square meters at a spray height of 18 inches (43 cm) above the average plant canopy height. Control plants were sprayed in the same manner with the solvent blank. The treated plants and control plants were placed in a greenhouse as described above and watered by subirrigation to prevent wash-off of the test compounds. After 14 d, the condition of the test plants as compared with that of the nontreated and control plants was determined visually and scored on a scale of 0 to 100 percent where 0 corresponds to no injury and 100 corresponds to complete control. In the reporting of the results, Table A: Percent Growth Reduction Conversion Table was used.

Compound	pest or weed control at 140 g/ha
O=C(O)c1nc(-c2ccc(SC(F)(F)F)cc2Cl)c(Cl)cc1Cl [F127, 3,5-Dichloro-6-(2-chloro-4-((trifluoromethyl)thio)phenyl) picolinic acid]	0 to 29%

Same assay, conditions: post-emergence, 336 h, AMARE: redroot pigweed (Amaranthus retroflexus), 140 g ai/ha, 14 days after application, read-out: Visual Growth Reduction (%) 14 Days After Application, AMARE

Compound	pest or weed control at 140 g/ha
O=C(O)c1nc(-c2ccc(SC(F)(F)F)cc2Cl)c(Cl)cc1Cl [F127, 3,5-Dichloro-6-(2-chloro-4-((trifluoromethyl)thio)phenyl) picolinic acid]	95 to 100%

Same assay, conditions: post-emergence, 336 h, AVEFA: wild oat (Avena fatua), 140 g ai/ha, 14 days after application, read-out: Visual Growth Reduction (%) 14 Days After Application, AVEFA

Compound	pest or weed control at 140 g/ha
O=C(O)c1nc(-c2ccc(SC(F)(F)F)cc2Cl)c(Cl)cc1Cl [F127, 3,5-Dichloro-6-(2-chloro-4-((trifluoromethyl)thio)phenyl) picolinic acid]	0 to 29%

Same assay, conditions: post-emergence, 336 h, CHEAL: lambsquarters (Chenopodium album), 140 g ai/ha, 14 days after application, read-out: Visual Growth Reduction (%) 14 Days After Application, CHEAL

Compound	pest or weed control at 140 g/ha
O=C(O)c1nc(-c2ccc(SC(F)(F)F)cc2Cl)c(Cl)cc1Cl [F127, 3,5-Dichloro-6-(2-chloro-4-((trifluoromethyl)thio)phenyl) picolinic acid]	75 to 84%

Same assay, conditions: post-emergence, 336 h, CIRAR: canada thistle (Cirsium arvense), 140 g ai/ha, 14 days after application, read-out: Visual Growth Reduction (%) 14 Days After Application, CIRAR

Compound	pest or weed control at 140 g/ha
O=C(O)c1nc(-c2ccc(SC(F)(F)F)cc2Cl)c(Cl)cc1Cl [F127, 3,5-Dichloro-6-(2-chloro-4-((trifluoromethyl)thio)phenyl) picolinic acid]	85 to 94%

Same assay, conditions: post-emergence, 336 h, CYPES: yellow nutsedge (Cyperus esculentus), 140 g ai/ha, 14 days after application, read-out: Visual Growth Reduction (%) 14 Days After Application, CYPES

Compound	pest or weed control at 140 g/ha
O=C(O)c1nc(-c2ccc(SC(F)(F)F)cc2Cl)c(Cl)cc1Cl [F127, 3,5-Dichloro-6-(2-chloro-4-((trifluoromethyl)thio)phenyl) picolinic acid]	0 to 29%

Same assay, conditions: post-emergence, 336 h, DIGSA: crabgrass (Digitaria sanguinalis), 140 g ai/ha, 14 days after application, read-out: Visual Growth Reduction (%) 14 Days After Application, DIGSA

Compound	pest or weed control at 140 g/ha
O=C(O)c1nc(-c2ccc(SC(F)(F)F)cc2Cl)c(Cl)cc1Cl [F127, 3,5-Dichloro-6-(2-chloro-4-((trifluoromethyl)thio)phenyl) picolinic acid]	60 to 74%

Same assay, conditions: post-emergence, 336 h, ECHCG: barnyardgrass (Echinochloa crus-galli), 140 g ai/ha, 14 days after application, read-out: Visual Growth Reduction (%) 14 Days After Application, ECHCG

Compound	pest or weed control at 140 g/ha
COC(=O)c1nc(-c2cc(OC)c3c(c2)OCO3)c(F)cc1Cl [F231, Methyl 3-chloro-5-fluoro-6-(7-methoxybenzo[d] [1,3]dioxol-5-yl)picolinate]	0 to 29%
O=C(O)c1nc(-c2ccc(SC(F)(F)F)cc2Cl)c(Cl)cc1Cl [F127, 3,5-Dichloro-6-(2-chloro-4-((trifluoromethyl)thio)phenyl) picolinic acid]	0 to 29%

Same assay, conditions: post-emergence, 336 h, IPOHE: ivy-leaf morning glory (Ipomoea hederacea), 140 g ai/ha, 14 days after application, read-out: Visual Growth Reduction (%) 14 Days After Application, IPOHE

Compound	pest or weed control at 140 g/ha
COC(=O)c1nc(-c2cc(OC)c3c(c2)OCO3)c(F)cc1Cl [F231, Methyl 3-chloro-5-fluoro-6-(7-methoxybenzo[d] [1,3]dioxol-5-yl)picolinate]	0 to 29%
O=C(O)c1nc(-c2ccc(SC(F)(F)F)cc2Cl)c(Cl)cc1Cl [F127, 3,5-Dichloro-6-(2-chloro-4-((trifluoromethyl)thio)phenyl) picolinic acid]	45 to 59%

Same assay, conditions: post-emergence, 336 h, KCHSC: kochia (Bassia scoparia), 140 g ai/ha, 14 days after application, read-out: Visual Growth Reduction (%) 14 Days After Application, KCHSC

Compound	pest or weed control at 140 g/ha
COC(=O)c1nc(-c2cc(OC)c3c(c2)OCO3)c(F)cc1Cl [F231, Methyl 3-chloro-5-fluoro-6-(7-methoxybenzo[d] [1,3]dioxol-5-yl)picolinate]	0 to 29%
O=C(O)c1nc(-c2ccc(SC(F)(F)F)cc2Cl)c(Cl)cc1Cl [F127, 3,5-Dichloro-6-(2-chloro-4-((trifluoromethyl)thio)phenyl) picolinic acid]	75 to 84%

Same assay, conditions: post-emergence, 336 h, ORYSA: rice (Oryza sativa), 140 g ai/ha, 14 days after application, read-out: Visual Growth Reduction (%) 14 Days After Application, ORYSA

Compound	pest or weed control at 140 g/ha
COC(=O)c1nc(-c2cc(OC)c3c(c2)OCO3)c(F)cc1Cl [F231, Methyl 3-chloro-5-fluoro-6-(7-methoxybenzo[d] [1,3]dioxol-5-yl)picolinate]	0 to 29%
O=C(O)c1nc(-c2ccc(SC(F)(F)F)cc2Cl)c(Cl)cc1Cl [F127, 3,5-Dichloro-6-(2-chloro-4-((trifluoromethyl)thio)phenyl) picolinic acid]	0 to 29%

Same assay, conditions: post-emergence, 336 h, SETFA: giant foxtail (Setaria faberi), 140 g ai/ha, 14 days after application, read-out: Visual Growth Reduction (%) 14 Days After Application, SETFA

Compound	pest or weed control at 140 g/ha
COC(=O)c1nc(-c2cc(OC)c3c(c2)OCO3)c(F)cc1Cl [F231, Methyl 3-chloro-5-fluoro-6-(7-methoxybenzo[d] [1,3]dioxol-5-yl)picolinate]	0 to 29%
O=C(O)c1nc(-c2ccc(SC(F)(F)F)cc2Cl)c(Cl)cc1Cl [F127, 3,5-Dichloro-6-(2-chloro-4-((trifluoromethyl)thio)phenyl) picolinic acid]	75 to 84%

Same assay, conditions: post-emergence, 336 h, SORVU: grain sorghum (Sorghum vulgare), 140 g ai/ha, 14 days after application, read-out: Visual Growth Reduction (%) 14 Days After Application, SORVU

Compound	pest or weed control at 140 g/ha
COC(=O)c1nc(-c2cc(OC)c3c(c2)OCO3)c(F)cc1Cl [F231, Methyl 3-chloro-5-fluoro-6-(7-methoxybenzo[d] [1,3]dioxol-5-yl)picolinate]	0 to 29%
O=C(O)c1nc(-c2ccc(SC(F)(F)F)cc2Cl)c(Cl)cc1Cl [F127, 3,5-Dichloro-6-(2-chloro-4-((trifluoromethyl)thio)phenyl) picolinic acid]	60 to 74%

Same assay, conditions: post-emergence, 336 h, STEME: common chickweed (Stellaria media), 140 g ai/ha, 14 days after application, read-out: Visual Growth Reduction (%) 14 Days After Application, STEME

Compound	pest or weed control at 140 g/ha
COC(=O)c1nc(-c2cc(OC)c3c(c2)OCO3)c(F)cc1Cl [F231, Methyl 3-chloro-5-fluoro-6-(7-methoxybenzo[d] [1,3]dioxol-5-yl)picolinate]	0 to 29%
O=C(O)c1nc(-c2ccc(SC(F)(F)F)cc2Cl)c(Cl)cc1Cl [F127, 3,5-Dichloro-6-(2-chloro-4-((trifluoromethyl)thio)phenyl) picolinic acid]	0 to 29%

Same assay, conditions: post-emergence, 336 h, TRZAS: wheat, spring (Triticum aestivum), 140 g ai/ha, 14 days after application, read-out: Visual Growth Reduction (%) 14 Days After Application, TRZAS

Compound	pest or weed control at 140 g/ha
COC(=O)c1nc(-c2cc(OC)c3c(c2)OCO3)c(F)cc1Cl [F231, Methyl 3-chloro-5-fluoro-6-(7-methoxybenzo[d] [1,3]dioxol-5-yl)picolinate]	0 to 29%
O=C(O)c1nc(-c2ccc(SC(F)(F)F)cc2Cl)c(Cl)cc1Cl [F127, 3,5-Dichloro-6-(2-chloro-4-((trifluoromethyl)thio)phenyl) picolinic acid]	0 to 29%

Same assay, conditions: post-emergence, 336 h, blackgrass (Alopecurus myosuroides), 14 Days After Application, 140 g ai/ha, read-out: Visual Growth Reduction (%) ALOMY

Compound	pest or weed control at 140 g/ha
COC(=O)c1nc(-c2cc(OC)c3c(c2)OCO3)c(F)cc1Cl [F231, Methyl 3-chloro-5-fluoro-6-(7-methoxybenzo[d] [1,3]dioxol-5-yl)picolinate]	0 to 29%

Same assay, conditions: post-emergence, 336 h, canada thistle (Cirsium arvense), 14 Days After Application, 140 g ai/ha, read-out: Visual Growth Reduction (%) CIRAR

Compound	pest or weed control at 140 g/ha
COC(=O)c1nc(-c2cc(OC)c3c(c2)OCO3)c(F)cc1Cl [F231, Methyl 3-chloro-5-fluoro-6-(7-methoxybenzo[d] [1,3]dioxol-5-yl)picolinate]	0 to 29%

Same assay, conditions: post-emergence, 336 h, crabgrass (Digitaria sanguinalis), 14 Days After Application, 140 g ai/ha, read-out: Visual Growth Reduction (%) DIGSA

Compound	pest or weed control at 140 g/ha
COC(=O)c1nc(-c2cc(OC)c3c(c2)OCO3)c(F)cc1Cl [F231, Methyl 3-chloro-5-fluoro-6-(7-methoxybenzo[d] [1,3]dioxol-5-yl)picolinate]	0 to 29%

Same assay, conditions: post-emergence, 336 h, lambsquarters (Chenopodium album), 14 Days After Application, 140 g ai/ha, read-out: Visual Growth Reduction (%) CHEAL

Compound	pest or weed control at 140 g/ha
COC(=O)c1nc(-c2cc(OC)c3c(c2)OCO3)c(F)cc1Cl [F231, Methyl 3-chloro-5-fluoro-6-(7-methoxybenzo[d] [1,3]dioxol-5-yl)picolinate]	0 to 29%

Same assay, conditions: post-emergence, 336 h, redroot pigweed (Amaranthus retroflexus), 14 Days After Application, 140 g ai/ha, read-out: Visual Growth Reduction (%) AMARE

Compound	pest or weed control at 140 g/ha
COC(=O)c1nc(-c2cc(OC)c3c(c2)OCO3)c(F)cc1Cl [F231, Methyl 3-chloro-5-fluoro-6-(7-methoxybenzo[d] [1,3]dioxol-5-yl)picolinate]	0 to 29%

Same assay, conditions: post-emergence, 336 h, wild oat (Avena fatua), 14 Days After Application, 140 g ai/ha, read-out: Visual Growth Reduction (%) AVEFA

Compound	pest or weed control at 140 g/ha
COC(=O)c1nc(-c2cc(OC)c3c(c2)OCO3)c(F)cc1Cl [F231, Methyl 3-chloro-5-fluoro-6-(7-methoxybenzo[d] [1,3]dioxol-5-yl)picolinate]	0 to 29%

Same assay, conditions: post-emergence, 336 h, yellow nutsedge (Cyperus esculentus), 14 Days After Application, 140 g ai/ha, read-out: Visual Growth Reduction (%) CYPES

Compound	pest or weed control at 140 g/ha
COC(=O)c1nc(-c2cc(OC)c3c(c2)OCO3)c(F)cc1Cl [F231, Methyl 3-chloro-5-fluoro-6-(7-methoxybenzo[d] [1,3]dioxol-5-yl)picolinate]	0 to 29%
